Results from PubChem BioAssay (NCI).
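Cells were grown in 96-well plates and exposed to each compound for 48 hours at five concentrations; endpoints were interpolated linearly between bracketing concentrations, or set to the highest concentration if not reached. At the TGI there is no net growth.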

What was measured:
Test in all cases: DTP human tumour cell line panel, 48 h
NCI/ADR-RES ovarian = tested on: NCI/ADR-RES ovarian
OVCAR-5 ovarian = tested on: OVCAR-5 ovarian
UACC-257 melanoma = tested on: UACC-257 melanoma
BT-549 breast = tested on: BT-549 breast
A498 renal = tested on: A498 renal
NCI-H23 lung = tested on: NCI-H23 lung
A549 NSCLC = tested on: A549 NSCLC
SNB-75 CNS = tested on: SNB-75 CNS
SW-620 colon = tested on: SW-620 colon
MCF7 breast = tested on: MCF7 breast
SNB-19 CNS = tested on: SNB-19 CNS
T-47D breast = tested on: T-47D breast
HCT-116 colon = tested on: HCT-116 colon
LOX IMVI melanoma = tested on: LOX IMVI melanoma
M14 melanoma = tested on: M14 melanoma
SR leukemia = tested on: SR leukemia
786-0 renal = tested on: 786-0 renal
TK-10 renal = tested on: TK-10 renal
RPMI-8226 leukemia = tested on: RPMI-8226 leukemia
HT29 colon = tested on: HT29 colon
RXF 393 renal = tested on: RXF 393 renal
CAKI-1 renal = tested on: CAKI-1 renal
OVCAR-3 ovarian = tested on: OVCAR-3 ovarian
MDA-MB-435 = tested on: MDA-MB-435
UACC-62 melanoma = tested on: UACC-62 melanoma
SK-MEL-28 melanoma = tested on: SK-MEL-28 melanoma
SK-MEL-2 melanoma = tested on: SK-MEL-2 melanoma
NCI-H522 lung = tested on: NCI-H522 lung
SF-268 CNS = tested on: SF-268 CNS
MDA-MB-231 breast = tested on: MDA-MB-231 breast
K-562 leukemia = tested on: K-562 leukemia
OVCAR-8 ovarian = tested on: OVCAR-8 ovarian
U251 CNS = tested on: U251 CNS
SF-295 CNS = tested on: SF-295 CNS
HCT-15 colon = tested on: HCT-15 colon
CCRF-CEM leukemia = tested on: CCRF-CEM leukemia
SN12C renal = tested on: SN12C renal
UO-31 renal = tested on: UO-31 renal
HS 578T breast = tested on: HS 578T breast
EKVX NSCLC = tested on: EKVX NSCLC
ACHN renal = tested on: ACHN renal
PC-3 prostate = tested on: PC-3 prostate
HCC-2998 colon = tested on: HCC-2998 colon
COLO 205 colon = tested on: COLO 205 colon
IGROV1 ovarian = tested on: IGROV1 ovarian
NCI-H460 lung = tested on: NCI-H460 lung
MOLT-4 leukemia = tested on: MOLT-4 leukemia
SK-MEL-5 melanoma = tested on: SK-MEL-5 melanoma
HOP-62 NSCLC = tested on: HOP-62 NSCLC
SF-539 CNS = tested on: SF-539 CNS
DU-145 prostate = tested on: DU-145 prostate
OVCAR-4 ovarian = tested on: OVCAR-4 ovarian
HOP-92 NSCLC = tested on: HOP-92 NSCLC
NCI-H226 lung = tested on: NCI-H226 lung
SK-OV-3 ovarian = tested on: SK-OV-3 ovarian
MALME-3M melanoma = tested on: MALME-3M melanoma

COc1nc(Cl)nc(Cl)c1Cl (tested in a mixture with another compound)
TGI (NCI/ADR-RES ovarian): > 27.7 µM
TGI (OVCAR-5 ovarian): 49.9 µM
TGI (UACC-257 melanoma): 12 µM
TGI (BT-549 breast): 22.5 µM
TGI (A498 renal): 37.4 µM
TGI (NCI-H23 lung): 20.8 µM
TGI (A549 NSCLC): > 66 µM
TGI (SNB-75 CNS): > 61.4 µM
TGI (SW-620 colon): 20.8 µM
TGI (MCF7 breast): 24.2 µM
TGI (SNB-19 CNS): 18.5 µM
TGI (T-47D breast): 44.4 µM
TGI (HCT-116 colon): 19.5 µM
TGI (LOX IMVI melanoma): 12.8 µM
TGI (M14 melanoma): 27.6 µM
TGI (SR leukemia): 4.65 µM
TGI (786-0 renal): > 46.7 µM
TGI (TK-10 renal): 19 µM
TGI (RPMI-8226 leukemia): 5.61 µM
TGI (HT29 colon): 17.9 µM
TGI (RXF 393 renal): 31.7 µM
TGI (CAKI-1 renal): 0.194 µM
TGI (OVCAR-3 ovarian): 12.4 µM
TGI (MDA-MB-435): > 36.3 µM
TGI (UACC-62 melanoma): 28.6 µM
TGI (SK-MEL-28 melanoma): 62.9 µM
TGI (SK-MEL-2 melanoma): 22.6 µM
TGI (NCI-H522 lung): 1.55 µM
TGI (SF-268 CNS): > 31.7 µM
TGI (MDA-MB-231 breast): > 39.1 µM
TGI (K-562 leukemia): 23.8 µM
TGI (OVCAR-8 ovarian): > 30.8 µM
TGI (U251 CNS): 23 µM
TGI (SF-295 CNS): 36.3 µM
TGI (HCT-15 colon): 18.7 µM
TGI (CCRF-CEM leukemia): 12.1 µM
TGI (SN12C renal): 51.6 µM
TGI (UO-31 renal): 1.94 µM
TGI (HS 578T breast): > 100 µM
TGI (EKVX NSCLC): 1.4 µM
TGI (ACHN renal): 17.6 µM
TGI (PC-3 prostate): 26 µM
TGI (HCC-2998 colon): 0.672 µM
TGI (COLO 205 colon): 26.8 µM
TGI (IGROV1 ovarian): 26.2 µM
TGI (NCI-H460 lung): 12.1 µM
TGI (MOLT-4 leukemia): 10.1 µM
TGI (SK-MEL-5 melanoma): 31.5 µM
TGI (HOP-62 NSCLC): 10.3 µM
TGI (SF-539 CNS): 21.6 µM
TGI (DU-145 prostate): 15.5 µM
TGI (OVCAR-4 ovarian): 14.1 µM
TGI (HOP-92 NSCLC): 14.9 µM
TGI (NCI-H226 lung): 77 µM
TGI (SK-OV-3 ovarian): 32.7 µM
TGI (MALME-3M melanoma): 47.3 µM
